We go through twelve molecules from patent publication US8557796B2, “Substituted 1-oxa-2,8-diaza-spiro [4,5] dec-2-ene derivatives and related treatment methods” (Gruenenthal GmbH, priority 2001, dated 2013).

The subject of the test is batrachotoxin (BTX) binding site (binding site 2) of the sodium channel. Briefly: Bond test on the sodium channel, binding site 2 (BTX bond), [3H]-batrachotoxinin A20 α-benzoate displacement. The note with it: rat cerebrocortex synaptosomes.

On to `O=C(C1=NOC2(CCN(S(=O)(=O)c3cccc(C(F)(F)F)c3)CC2)C1)N1CCN(Cc2ccc3ccccc3c2)CC1` [Example 35, (4-naphthalen-2-ylmethyl-piperazin-l-yl)-[8-(3-trifluoromethyl-benzenesulphonyl)-1-oxa-2,8-diaza-spiro[4,5]dec-2-en-3-yl]-methanone], for which the “BTX bond, 10 μM, % inhibition” value turned out to be 50%.
As to `O=C(NCc1ccccc1)C1=NOC2(CCN(C(=O)c3ccc(Br)cc3)CC2)C1` [Example 212, 8-(4-bromo-benzoyl)-1-oxa-2,8-diaza-spiro[4,5]dec-2-ene-3-carboxylic acid benzylamide], the “BTX bond, 10 μM, % inhibition” value was 58%.
For the molecule `CCOC(=O)N1CCC(NC(=O)C2=NOC3(CCN(C(=O)C4CC4c4ccccc4)CC3)C2)CC1` (stereo not drawn) [Example 55, 4-{[8-(2-phenyl-cyclopropanecarbonyl)-1-oxa-2,8-diaza-spiro[4,5]dec-2-ene-3-carbonyl]-amino}-piperidine-1-carboxylic acid ethyl ester], the “BTX bond, 10 μM, % inhibition” value is 47%.
As for `Cc1cc(C(=O)N2CCC3(CC2)CC(C(=O)NCc2ccccc2)=NO3)c(C)o1` [Example 217, 8-(2,5-dimethyl-furan-3-carbonyl)-1-oxa-2,8-diaza-spiro[4,5]dec-2-ene-3-carboxylic acid benzylamide], the “BTX bond, 10 μM, % inhibition” value is 51%.
As for `CN(CCCNC(=O)C1=NOC2(CCN(S(=O)(=O)c3ccc(Cl)s3)CC2)C1)c1ccccc1` [Example 89], the “BTX bond, 10 μM, % inhibition” value is on record as 81%.
As to `O=C(NC1CCCC1OCc1ccccc1)C1=NOC2(CCN(S(=O)(=O)c3cccc(C(F)(F)F)c3)CC2)C1` (stereo not drawn) [Example 201, 8-(3-trifluoromethyl-benzenesulphonyl)-1-oxa-2,8-diaza-spiro[4,5]dec-2-ene-3-carboxylic acid (2-benzyloxy-cyclopentyl)-amide], the “BTX bond, 10 μM, % inhibition” value was 61%.
Under `O=C(C1=NOC2(CCN(S(=O)(=O)c3ccc(Cl)s3)CC2)C1)N1CCN(c2ccc(F)cc2)CC1` [Example 91, [8-(5-chloro-thiophene-2-sulphonyl)-1-oxa-2,8-diaza-spiro[4,5]dec-2-en-3-yl]-[4-(4-fluorophenyl)-piperazin-1-yl]-methanone] stands 72%.
Consider `O=C(NCc1cccs1)C1=NOC2(CCN(C(=O)c3ccc(SC(F)(F)F)cc3)CC2)C1` [Example 135, 8-(4-trifluoromethylsulphanyl-benzoyl)-1-oxa-2,8-diaza-spiro[4,5]dec-2-ene-3-carboxylic acid (thiophen-2-ylmethyl)-amide], for which the “BTX bond, 10 μM, % inhibition” value is on record as 85%.
Consider `Cc1ccc(S(=O)(=O)N2CCC3(CC2)CC(C(=O)NCc2cc(Cl)cc(Cl)c2)=NO3)cc1` [Example 63, 8-(toluene-4-sulphonyl)-1-oxa-2,8-diaza-spiro[4,5]dec-2-ene-3-carboxylic acid 3,5-dichlorobenzylamide], for which the “BTX bond, 10 μM, % inhibition” value is recorded as 38%.
`N#CCCN(Cc1cccnc1)C(=O)C1=NOC2(CCN(S(=O)(=O)c3cc(Cl)ccc3Cl)CC2)C1` [Example 99, 8-(2,5-dichloro-benzenesulphonyl)-1-oxa-2,8-diaza-spiro[4,5]dec-2-ene-3-carboxylic acid (2-cyano-ethyl)-pyridin-3-ylmethyl-amide]: the “BTX bond, 10 μM, % inhibition” value was determined as 50%.
Under `Cc1ccc(S(=O)(=O)N2CCC3(CC2)CC(C(=O)NCCN(C)C)=NO3)cc1` [Example 57, 8-(toluene-4-sulphonyl)-1-oxa-2,8-diaza-spiro[4,5]dec-2-ene-3-carboxylic acid (2-dimethylamino-ethyl)-amide] stands 45%; under `COc1ccc(Br)cc1S(=O)(=O)N1CCC2(CC1)CC(C(=O)NC1CCCC1)=NO2` [Example 173, 8-(5-bromo-2-methoxy-benzenesulphonyl)-1-oxa-2,8-diaza-spiro[4,5]dec-2-ene-3-carboxylic acid cyclopentylamide], 62%.
